# According to PubChem BioAssay (NCI):
#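 96-well plates; 48 h exposure; 5 concentrations. Endpoints by linear interpolation between flanking doses. Not reached: highest tested concentration assigned. Definition used: TGI = concentration required for complete inhibition of growth.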
# What was measured:
# Test in all cases: inhibition of tumour cell growth, NCI panel, 48 h
# [1] = test system: ACHN renal
# [2] = test system: EKVX NSCLC
# [3] = test system: HS 578T breast
# [4] = test system: MCF7 breast
# [5] = test system: NCI-H23 lung
# [6] = test system: PC-3 prostate
# [7] = test system: SF-539 CNS
# [8] = test system: SW-620 colon
# [9] = test system: UACC-62 melanoma
# [10] = test system: XF 498 CNS
compound,measurement,setting,value
CCCc1cc(-c2ccc(-c3cc(CCC)c(C=O)[nH]3)s2)[nH]c1C=O,TGI,[1],> 100 µM
same,TGI,[2],> 100 µM
same,TGI,[3],> 100 µM
same,TGI,[4],> 100 µM
same,TGI,[5],> 86.1 µM
same,TGI,[6],> 100 µM
same,TGI,[7],> 100 µM
same,TGI,[8],> 100 µM
same,TGI,[9],> 100 µM
same,TGI,[10],> 100 µM
